The text below walks through data of paper PMC4979471 (Cell Death Discovery, 2015).

What all share (test): Kinase selectivity, P33-radiolabeled assay
Holding throughout (type): biochemical
Holding throughout (conditions): 10 μM ATP

The target of one test is T1, LATS1 (Homo sapiens, UniProt O95835).
T1 construct: purchased Reaction Biology Corp
T1 sequence (O95835 1-1130): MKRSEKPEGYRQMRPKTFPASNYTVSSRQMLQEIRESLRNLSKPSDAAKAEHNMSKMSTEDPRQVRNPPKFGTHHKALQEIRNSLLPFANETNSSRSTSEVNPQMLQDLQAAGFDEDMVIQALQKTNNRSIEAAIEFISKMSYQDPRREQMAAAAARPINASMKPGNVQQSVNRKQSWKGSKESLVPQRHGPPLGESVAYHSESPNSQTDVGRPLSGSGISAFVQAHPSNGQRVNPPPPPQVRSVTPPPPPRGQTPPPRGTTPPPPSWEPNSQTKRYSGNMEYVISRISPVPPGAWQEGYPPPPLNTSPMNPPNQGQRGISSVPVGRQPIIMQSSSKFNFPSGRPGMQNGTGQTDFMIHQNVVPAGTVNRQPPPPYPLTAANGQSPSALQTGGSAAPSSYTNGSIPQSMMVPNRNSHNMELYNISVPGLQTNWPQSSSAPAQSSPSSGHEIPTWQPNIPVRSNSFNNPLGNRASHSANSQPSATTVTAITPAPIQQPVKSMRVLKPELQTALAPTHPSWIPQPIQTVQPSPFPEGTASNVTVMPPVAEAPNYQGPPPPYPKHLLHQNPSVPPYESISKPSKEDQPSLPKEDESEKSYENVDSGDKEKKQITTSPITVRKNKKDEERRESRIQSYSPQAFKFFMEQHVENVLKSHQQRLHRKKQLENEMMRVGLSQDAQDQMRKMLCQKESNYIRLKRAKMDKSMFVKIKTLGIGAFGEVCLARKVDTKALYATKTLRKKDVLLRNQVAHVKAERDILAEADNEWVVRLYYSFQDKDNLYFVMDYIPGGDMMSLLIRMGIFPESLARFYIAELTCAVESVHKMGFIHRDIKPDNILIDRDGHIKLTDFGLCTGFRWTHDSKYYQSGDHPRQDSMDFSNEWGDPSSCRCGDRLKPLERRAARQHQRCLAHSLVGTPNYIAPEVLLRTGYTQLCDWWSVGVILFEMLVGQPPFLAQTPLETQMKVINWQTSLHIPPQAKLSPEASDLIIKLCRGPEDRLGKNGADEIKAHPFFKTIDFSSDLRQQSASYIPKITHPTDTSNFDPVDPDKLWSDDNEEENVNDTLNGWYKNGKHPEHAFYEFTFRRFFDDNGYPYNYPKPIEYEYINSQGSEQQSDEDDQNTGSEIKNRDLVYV
A digest of the protocol:
(§1)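 Activity relative to DMSO controls (%) was measured for compound at 10 μM. Assays ran at 10 μM ATP, in duplicate.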

The target in the next test is T2, ROCK2 (Homo sapiens, UniProt O75116).
T2 construct: purchased Reaction Biology Corp
T2 sequence (O75116 whole entry): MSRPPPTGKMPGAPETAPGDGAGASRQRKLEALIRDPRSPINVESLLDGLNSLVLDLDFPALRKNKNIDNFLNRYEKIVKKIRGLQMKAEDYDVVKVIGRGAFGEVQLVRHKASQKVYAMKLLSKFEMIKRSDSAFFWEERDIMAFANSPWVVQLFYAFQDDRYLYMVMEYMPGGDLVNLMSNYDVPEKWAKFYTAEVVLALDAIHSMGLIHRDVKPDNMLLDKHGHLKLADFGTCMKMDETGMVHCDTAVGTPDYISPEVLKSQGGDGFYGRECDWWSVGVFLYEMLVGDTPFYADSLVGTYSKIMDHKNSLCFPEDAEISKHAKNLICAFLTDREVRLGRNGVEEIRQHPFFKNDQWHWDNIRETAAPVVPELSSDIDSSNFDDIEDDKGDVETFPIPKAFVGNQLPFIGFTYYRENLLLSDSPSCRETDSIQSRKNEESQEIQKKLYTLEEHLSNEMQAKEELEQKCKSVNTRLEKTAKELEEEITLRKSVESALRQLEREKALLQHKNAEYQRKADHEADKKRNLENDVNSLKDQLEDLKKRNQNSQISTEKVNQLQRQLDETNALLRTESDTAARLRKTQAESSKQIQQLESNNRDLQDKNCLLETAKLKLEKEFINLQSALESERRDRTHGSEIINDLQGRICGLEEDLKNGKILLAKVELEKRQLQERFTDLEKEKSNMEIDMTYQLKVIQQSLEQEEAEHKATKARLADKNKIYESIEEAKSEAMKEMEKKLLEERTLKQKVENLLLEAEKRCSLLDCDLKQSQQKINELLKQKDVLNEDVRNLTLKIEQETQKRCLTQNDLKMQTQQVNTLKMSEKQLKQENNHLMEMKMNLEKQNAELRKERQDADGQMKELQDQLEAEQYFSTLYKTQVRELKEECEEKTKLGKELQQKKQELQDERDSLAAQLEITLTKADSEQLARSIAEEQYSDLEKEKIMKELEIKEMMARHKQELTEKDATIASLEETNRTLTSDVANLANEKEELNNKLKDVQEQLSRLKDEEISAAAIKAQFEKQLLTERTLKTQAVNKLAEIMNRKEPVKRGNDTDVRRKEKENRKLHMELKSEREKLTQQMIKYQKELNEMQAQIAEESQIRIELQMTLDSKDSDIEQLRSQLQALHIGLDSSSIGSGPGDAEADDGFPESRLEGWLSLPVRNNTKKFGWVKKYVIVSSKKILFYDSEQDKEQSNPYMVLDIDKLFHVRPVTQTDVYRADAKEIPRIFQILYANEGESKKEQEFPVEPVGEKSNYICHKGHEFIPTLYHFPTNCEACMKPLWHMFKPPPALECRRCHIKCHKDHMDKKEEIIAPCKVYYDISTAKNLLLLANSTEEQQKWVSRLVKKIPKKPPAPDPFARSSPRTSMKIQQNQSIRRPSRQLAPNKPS
A digest of the protocol: as §1

A further test addresses T3, SGK2 (Homo sapiens, UniProt Q9HBY8).
T3 construct: purchased Reaction Biology Corp
T3 sequence (Q9HBY8 1-367): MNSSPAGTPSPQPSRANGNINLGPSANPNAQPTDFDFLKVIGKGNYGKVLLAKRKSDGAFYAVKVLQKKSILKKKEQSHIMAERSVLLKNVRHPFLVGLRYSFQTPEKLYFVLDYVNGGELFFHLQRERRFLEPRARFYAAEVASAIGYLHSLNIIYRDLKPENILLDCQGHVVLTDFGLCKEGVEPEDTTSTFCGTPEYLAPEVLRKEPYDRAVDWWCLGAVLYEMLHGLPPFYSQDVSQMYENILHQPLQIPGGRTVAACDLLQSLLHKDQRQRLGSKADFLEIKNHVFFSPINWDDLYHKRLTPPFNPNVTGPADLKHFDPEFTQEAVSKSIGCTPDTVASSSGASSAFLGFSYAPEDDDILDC
A digest of the protocol: as §1

In another test the target is T4, STK25/YSK1 (Homo sapiens, UniProt O00506).
T4 construct: purchased Reaction Biology Corp
T4 sequence (O00506 whole entry): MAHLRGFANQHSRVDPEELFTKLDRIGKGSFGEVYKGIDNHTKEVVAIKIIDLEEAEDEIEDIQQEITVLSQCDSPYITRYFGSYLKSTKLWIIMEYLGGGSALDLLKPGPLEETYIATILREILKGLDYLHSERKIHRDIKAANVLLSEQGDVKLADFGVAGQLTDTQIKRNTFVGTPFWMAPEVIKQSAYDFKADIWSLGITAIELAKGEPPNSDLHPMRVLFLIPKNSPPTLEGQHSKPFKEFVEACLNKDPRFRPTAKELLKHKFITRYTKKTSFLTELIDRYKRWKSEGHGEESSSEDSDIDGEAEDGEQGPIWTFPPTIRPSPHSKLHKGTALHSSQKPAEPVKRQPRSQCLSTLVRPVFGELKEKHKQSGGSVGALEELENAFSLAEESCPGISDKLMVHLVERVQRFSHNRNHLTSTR
In outline:
as §1

In a further test the target is T5, STK38L/NDR2 (Homo sapiens, UniProt Q9Y2H1).
T5 construct: purchased Reaction Biology Corp
T5 sequence (Q9Y2H1 whole entry): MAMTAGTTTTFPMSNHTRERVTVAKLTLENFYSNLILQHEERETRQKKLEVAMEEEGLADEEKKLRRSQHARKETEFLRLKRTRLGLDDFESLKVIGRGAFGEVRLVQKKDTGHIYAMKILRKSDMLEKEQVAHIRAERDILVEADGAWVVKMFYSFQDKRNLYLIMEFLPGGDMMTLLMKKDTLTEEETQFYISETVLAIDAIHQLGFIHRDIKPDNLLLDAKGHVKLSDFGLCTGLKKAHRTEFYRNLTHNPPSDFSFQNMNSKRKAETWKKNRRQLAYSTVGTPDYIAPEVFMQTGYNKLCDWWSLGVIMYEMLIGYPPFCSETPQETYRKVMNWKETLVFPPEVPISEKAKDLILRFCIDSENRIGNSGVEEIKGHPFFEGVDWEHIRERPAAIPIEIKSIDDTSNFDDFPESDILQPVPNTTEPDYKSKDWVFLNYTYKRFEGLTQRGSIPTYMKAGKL
In outline:
as §1

The target of a further test is T6, TGFBR2 (Homo sapiens, UniProt P37173).
T6 construct: purchased Reaction Biology Corp
T6 sequence (P37173 23-567): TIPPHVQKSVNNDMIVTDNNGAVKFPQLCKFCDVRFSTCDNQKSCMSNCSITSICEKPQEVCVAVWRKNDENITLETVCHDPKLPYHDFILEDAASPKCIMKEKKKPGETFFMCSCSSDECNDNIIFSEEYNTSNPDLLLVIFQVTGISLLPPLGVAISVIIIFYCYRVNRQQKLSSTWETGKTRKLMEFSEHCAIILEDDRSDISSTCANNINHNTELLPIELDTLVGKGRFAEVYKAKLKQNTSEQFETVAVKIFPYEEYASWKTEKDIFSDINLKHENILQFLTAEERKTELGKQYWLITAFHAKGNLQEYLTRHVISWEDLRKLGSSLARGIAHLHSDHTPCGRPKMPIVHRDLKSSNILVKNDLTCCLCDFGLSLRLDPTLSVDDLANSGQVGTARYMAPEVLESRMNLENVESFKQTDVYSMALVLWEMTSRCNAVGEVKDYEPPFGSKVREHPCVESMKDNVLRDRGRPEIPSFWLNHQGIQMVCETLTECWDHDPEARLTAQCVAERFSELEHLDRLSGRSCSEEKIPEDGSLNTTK
In outline: as §1

The next test concerns the target T7, TSSK2 (Homo sapiens, UniProt Q96PF2).
T7 construct: purchased Reaction Biology Corp
T7 sequence (Q96PF2 1-358): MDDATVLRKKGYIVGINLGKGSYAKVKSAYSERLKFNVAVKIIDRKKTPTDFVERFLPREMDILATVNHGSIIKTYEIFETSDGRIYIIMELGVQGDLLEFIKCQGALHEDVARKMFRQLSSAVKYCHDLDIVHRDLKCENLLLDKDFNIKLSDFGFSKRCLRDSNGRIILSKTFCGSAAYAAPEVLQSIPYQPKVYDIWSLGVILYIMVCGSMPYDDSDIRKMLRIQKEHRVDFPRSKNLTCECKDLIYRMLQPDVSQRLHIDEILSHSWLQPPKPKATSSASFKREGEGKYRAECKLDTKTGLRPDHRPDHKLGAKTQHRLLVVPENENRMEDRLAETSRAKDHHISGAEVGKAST
In outline:
as §1

Setting [1] is: read-out: % Enzyme Activity (relative to DMSO controls) AVG.
[2] abbreviates: read-out: % Enzyme Activity (relative to DMSO controls) Data 1.
Setting [3] is: read-out: % Enzyme Activity (relative to DMSO controls) Data 2.

Read-outs that look alike come from different tables or passages of the source.

With `CC(C)(C)C(=O)N1N=CC[C@H]1c1ccccc1` [GSK′963], the remaining activity at 10 µM at LATS1 (setting [1]) stood at 103%; on LATS1 (setting [2]), 103%; at LATS1 (setting [3]), 102%; at ROCK2 (setting [1]), 98%; on ROCK2 (setting [2]), 99%; at ROCK2 (setting [3]) it was 97.1%. In addition, the remaining activity at 10 µM is 107% on SGK2 (setting [1]); 109% at SGK2 (setting [2]); 106% on SGK2 (setting [3]); 96.1% on STK25/YSK1 (setting [1]); 96.7% at STK25/YSK1 (setting [2]); 95.4% on STK25/YSK1 (setting [3]). Moreover, the remaining activity at 10 µM at STK38L/NDR2 (setting [1]) stood at 99.8%; at STK38L/NDR2 (setting [2]), 101%; at STK38L/NDR2 (setting [3]) it was 98.1%; on TGFBR2 (setting [1]) it was 116%; on TGFBR2 (setting [2]) it was 119%; at TGFBR2 (setting [3]), 114%. Further, the remaining activity at 10 µM at TSSK2 (setting [1]) is 104%; on TSSK2 (setting [2]), 102%; at TSSK2 (setting [3]), 105%.
